Measurements reported in patent US8609409B2, “Methods and compositions for cell culture platform” (Clemson University, priority 2009, dated 2013).
“Also recorded” adds a separate entry of the source. Where no end group is shown, it is not given here.

Tests used:
[1] = tested on: Human neural progenitor cells (hNPCs); assay: hNPC differentiation on coated cover slips; type: cell-based; settings: 2 weeks, media without FGF-2 and EGF
Procedure: (§1) Human neural progenitor cells were obtained from Millipore (Billerica, Mass.). The stem cell is an immortalized neural progenitor cell line derived from the ventral mesencephalon region of human fetal brain and immortalized by retroviral transduction with the v-myc oncogene. In conventional culture, laminin (20 μg/mL) was used to coat tissue culture plastic-wares at least 2 h before hNPC seeding. Human NPCs were maintained in ReNcell Neural Stem Cell Medium (Millipore) with FGF-2 (20 ng/mL) and EGF (20 ng/mL). Human NPCs were incubated at 37° C. under 5% CO2 and used before passage 5 in this study. For cell adhesion assays, cells were removed from the plate using Accutase, aspirated in growth media, and seeded on peptide or laminin coated substrates at a density of 50, 000 cells/cm^2. For differentiation study, hNPCs were cultured with the medium without FGF-2 and EGF.
The differentiation of hNPCs on the tested surfaces was assayed by immunocytochemistry. Human NPCs were cultured for 2 weeks with differentiation media without growth factors FGF-2 and EGF. The cells were fixed with 4% (w/v) paraformaldehyde, treated with 5% goat serum in PBS to block non-specific reactivity and incubated overnight at 4° C. with primary antibodies, such as β III tubulin and glial fibrillary acidic protein (GFAP). After washing with PBS three times, the samples were incubated with the secondary antibodies at room temperature for 3 h. Then the nuclei were counterstained with DAPI for 30 min. The samples were imaged using the same microscope as described before. At least 6 random fields per surface were analyzed for each group.

[2] = tested on: in vitro cell cultures; assay: safety and cytotoxic profile of genipin; type: cell-based
Excerpt: Chitosan and gelatin are two naturally occurring polymers. Chitosan is a polysaccharide formed by cross linkage of multiple monosaccharide units. It has active acetyl groups available for cross linkage. At acidic pH, chitosan is able to undergo polymerization. Gelatin is a peptide polymer and chemically derived from denatured collagen. […] Chitosan and gelatin co-polymer can be created by mixing chitosan with gelatin using a standard and well known procedure that involves creating acidic pH for chitosan polymerization followed by mixing with heated and stirred gelatin solution. However there are two disadvantages of this approach—high osmolarity of the resultant solution (>500 mM) and acidic pH. There are also concerns for cytotoxicity to biological tissues at such high concentrations. These disadvantages render the use of this copolymer useless for clinical application, In the present invention, chitosan and gelatin were cross linked by two different approaches—the first was a covalent linkage using genipin followed by using ionic cross linkage using glycerol phosphate. Genipin is a plant derived cross linker and quite cheap. […] This concentration of genipin was added to chitosan and gelatin mixture. Genipin is able to covalently link both the saccharide and amine groups available in chitosan and gelatin, respectively. This creates a polysaccharide-peptide cross linkage. […]

[3] = Rheological characterization of PEG hydrogels conjugated with peptides; type: physicochemical; settings: 4-arm thiolated PEG 2% + PEGTA 2%, our peptide 10, 50, 100 μM; for start of gelation process (G′>G″): 37° C., lam-IKVAV 100 μM
Procedure: Rheometer (AR1000, TA Instruments) was used to measure hydrogel mechanical properties, such as storage modulus (G′) and loss modulus (G″), and gelation time^8. Briefly, the time sweep was performed to monitor the in situ gelation at 37° C., recording the temporal evolution of G′ and G″. Frequency sweep test was used to obtain information about the stability of hydrogel structures. The stress sweep was set up by holding the frequency 1 Hz constant while increasing the stress level from 1 to 10 Pa. […] Oscillatory stress sweep allowed determination of G′ of hydrogels.
(§2) The lam-IKVAV peptide and our synthesized peptide of different concentrations were conjugated to PEG hydrogels through addition reaction of peptide cys thiols onto the ends of a PEGTA crosslinker as described before^9. Briefly, peptides containing stock solutions (100 μM) were prepared in the PEGTA stock solution (2% w/w) and stirred for 2 h at room temperature. In the peptide-linker stock solutions, the molar ratio of peptides to PEGTA was 1:20. The reaction kinetics of conjugate addition of cys-containing IKVAV peptides to PEGTA was followed using 5,5′-dithio-bis(2-nitrobenzoic acid) (DTNB) reagent according to previous study^9. Additional PEGTA solutions with lower peptide concentrations of 50 and 10 μM were prepared by diluting the stock solution with peptide-free […] solution (peptide: PEGTA: 1:40 and 1:200, respectively). Then PEGTA solutions containing different concentrations of peptides were added to 4-arm thiolated PEG (2% w/w) solution and mixed thoroughly to form hydrogels.

[4] = tested on: Human neural progenitor cells (hNPCs); assay: hNPCs cultured on the surface of hydrogels conjugated with peptides; type: cell-based; settings: for hNPC attachment and proliferation on hydrogel surface: lam-IKVAV 100 μM, our peptide 10 and 100 μM
Procedure: as §2
(§3) Morphology of cells was examined by immunostaining of actin. Cells were fixed with 4% (w/v) paraformaldehyde, permeabilized with 0.5% Triton X-100 (t-octylphenoxyplyethoxy-ethanol), and stained with Alexa Fluor-543 Phalloidin for 30 min. The nuclei were counterstained with 1 μg/mL DAPI for 30 min. The cells were imaged using a Leica TCS SP5 laser scanning confocal microscope (Bannockburn, Ill.).
Human NPCs were cultured on the surface of hydrogels with maintain media for 7 days. Without any bioactive peptide, hNPCs could not attach on the surface of blank PEG hydrogels (FIG. 22B). The cells formed spheres by themselves at the day 3. […] These attached cells proliferated on the surface as the function of time (FIGS. 22C and 22D). […] There was no difference about the morphology of hNPCs between these two groups.

[5] = tested on: Human neural progenitor cells (hNPCs); assay: hNPC attachment, morphology and proliferation on gold-coated cover slips; type: cell-based; settings: for hNPC attachment: day 1; for state of attached hNPCs: day 10
Procedure: as §1
The lam-IKVAV and our synthesized peptide were conjugated to gold-coated cover slips. For gold-coating on glass surfaces, cover slips were first cleaned with ethanol by sonication for 30 min. Then gold was coated on the cover slips by a sputter coater. For peptide and laminin coating, the peptide (150 μg/mL or 100 μM) or laminin (20 μg/mL) solutions were applied on the cover slips for at least 2 h. Then the solutions were removed from the slips and washed with phosphate buffered saline (PBS) for three times. Atomic force microscope (AFM) was used to examine the 3D configuration of the peptides on the surface.
To determine whether peptide-functionalized surfaces can support cell attachment and long-term culture and proliferation, hNPCs were cultured in complete growth medium, which contains FGF-2 and EGF to maintain hNPCs in the undifferentiated state. Cells were incubated at 37° C. with media changed every other day as we routinely culture hNPCs in laminin coated substrates. At the day 1, 5, and 10, cells were assayed with CyQuant (Invitrogen). The cell number was generated through a standard curve.
as §3

[6] = tested on: Human neurospheres (hNPCs); assay: Human neurospheres cultured inside hydrogels conjugated with peptides; type: cell-based
Procedure: Neurospheres with uniform sizes were fabricated using a robotic fabrication system developed in our lab. Briefly, stamps with micronipple array were designed in SolidWorks and fabricated using ultra-precision lathe. The automatic neurospheres fabricator was built on a TT-C3-4040 robot (IAI Corporation, Shizuoka, Japan) with electric triggered gripper to pick up the stamp and pipette tip uptake and ejection actuator to handle liquid. Agarose solution (2% w/w) was prepared by built-in heating elements in the robot platform. The robot was programmed to first add agarose solution to culture dishes. Then the robot picked up the stamp with micronipple arrays on the bottom and pressed on the agarose solution at room temperature for 2 min. Then the highly uniform size microwells were formed in the agarose gel. Human NPC suspension was uptake by the robot and added to the culture well with microwell arrays. After 24 h of culture at 37° C. and 5% CO2, uniform sized neurospheres were formed for this study use. For 3D culture, human neurospheres with uniform size were mixed with hydrogel precursor solutions before hydrogel formation.
Viability of cells inside hydrogels was examined using LIVE/DEAD Viability Kit, which is a two color fluorescent assay based on differential permeability of live and dead cells and allows preservation of the distinctive staining pattern for a couple of hours after post-fixation with 4% (w/v) glutaraldehyde. Live cells were stained with green fluorescent SYTO 10; and dead cells with compromised cell membranes were stained with red fluorescent ethidium homodimer-2. […]
We quantified the cell migration by taking measurements of the distance between the edge of spheres and the cell bodies at their outer perimeters. FIG. 26 presents quantification of cell migration from neurospheres cultured inside hydrogels conjugated with lam-IKVAV of 100 μM and our novel IKVAV peptide of different concentrations of 0, 10, 50, and 100 μM at the day 3, 7, and 21. […]

Row | Compound | cells differentiated into astrocytes (GFAP+) [1] [%] | cells differentiated into neurons (β III tubulin+) [1] [%] | concentration found to be safe [2] [µM] | start of gelation process (G′>G″) [3] [min] | hNPC attachment and proliferation on hydrogel surface [4] | hNPC morphology / spreading [5] | hNPC attachment [5] | state of attached hNPCs [5] | storage modulus G′ ([3]; at 2 h) | cells differentiated into astrocytes (GFAP+) ([1]; listed as our short peptide) | hNPC morphology on hydrogel surface ([4]; day 7, 10 and 100 μM) | hNPC attachment and proliferation on hydrogel surface ([4]; listed as our short peptide) | peptide density with maximum enhancement of cell migration ([6]; conjugated to PEG hydrogels) [µM] | distance of hNSCs migration from neurospheres ([6]; peptide 10 μM, day 3, 7 and 21) [fold] | effect on cell migration from neurospheres ([6]; peptide concentration higher than 10 μM) | attachment and proliferation compared with laminin coated surface [5]
1 | laminin: mouse laminin, whole ECM protein used as coating (20 μg/mL) [reference compound] | 74 | 11 |  |  |  |  |  |  |  |  |  |  |  |  |  | 
2 | COC(=O)C1=CO[C@@H](O)[C@@H]2C(CO)=CC[C@H]12 [genipin] |  |  | 400 |  |  |  |  |  |  |  |  |  |  |  |  | 
3 | CSRARKQAASIKVAVSADR [lam-IKVAV, commercial laminin IKVAV peptide from American Peptide Company, reference compound] |  |  |  | 30 | aggregated together; also recorded: did not support any hNPC attachment | preferred to aggregate together | very few cells attached | floated off the surface |  |  |  |  |  |  |  | 
4 | Ac-Cys-Cys-Arg-Arg-Ile-Lys-Val-Ala-Val-Trp-Leu-Cys (Ac-CCRRIKVAVWLC-OH; cysteine pairing not given here) [our novel peptide] | 33 | 54 |  | 40 | improved hNPC attachment, spreading and proliferation | spread more evenly | significantly much more cells attached compared to lam-IKVAV | totally confluent on the whole surface | about 600 Pa | about 30% | displayed spreading cytoskeletons | cells attached at the day 1 | 10 | 2 | inhibitory effects on cell migration | no significant difference
